Data from PubChem BioAssay AID328 (DTP/NCI, 2004).
“And” between values parts separate entries of the source, which are not always exact repeats. Equal entries are not always repeated. Toxic doses and inconclusive results are not listed. Rule for the calls: active = survival T/C of 150% or more; inactive = T/C below 125% in these data.

Test system: BDF1 mice, P388 leukemia ip, median survival T/C
Test: NCI In Vivo Anticancer Drug Screen. Data for tumor model P388 Leukemia (intraperitoneal) in B6D2F1 (BDF1) mice
Settings: endpoint: median survival time, higher = longer survival
Procedure, shortened: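 Survival ratio, drug arm over vehicle arm, in mice with a transplanted tumour.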

[1] = dose: 50.0 mg/kg/injection, schedule: Q01DX009 (ip), vehicle: saline with Tween-80
[2] = dose: 100.0 mg/kg/injection, schedule: Q01DX009 (ip), vehicle: saline with Tween-80
[3] = dose: 200.0 mg/kg/injection, schedule: Q01DX009 (ip), vehicle: saline with Tween-80
[4] = dose: 400.0 mg/kg/injection, schedule: Q01DX009 (ip), vehicle: saline with Tween-80
[5] = dose: 100.0 mg/kg/injection, schedule: Q04DX003 (ip), vehicle: saline
[6] = dose: 200.0 mg/kg/injection, schedule: Q04DX003 (ip), vehicle: saline
[7] = dose: 200.0 mg/kg/injection, schedule: Q01DX009 (ip), vehicle: Klucel (hydroxypropylcellulose) (HPC)
[8] = dose: 50.0 mg/kg/injection, schedule: Q01DX009 (ip), vehicle: saline
[9] = dose: 100.0 mg/kg/injection, schedule: Q04DX003 (ip), vehicle: saline with Tween-80
[10] = dose: 200.0 mg/kg/injection, schedule: Q04DX003 (ip), vehicle: saline with Tween-80
[11] = dose: 400.0 mg/kg/injection, schedule: Q04DX003 (ip), vehicle: saline with Tween-80

Measured: T/C

O=S(=O)(O)O.O=S(=O)([O-])[O-].O=[N+]([O-])O.[Co+3].[Co+3].[NH2-].[NH2-].[NH2-].[NH2-].[NH2-].[NH2-].[NH2-].[NH2-].[NH2-]
inactive: dose: 6.25 mg/kg/injection, schedule: Q01DX009 (ip), vehicle: water 97 % of control | dose: 12.5 mg/kg/injection, schedule: Q01DX009 (ip), vehicle: water 124 % of control

COc1ccc(N=Cc2ccc3c(c2)OCO3)cc1
inactive: [1] 98 % of control | [2] 100 % of control | [3] 105 % of control | [4] 98 % of control

CCOC(=O)CCC1(CCC(=O)OCC)OCCO1
inactive: [2] 91 % of control | [5] 95 % of control | [3] 95 % of control | [6] 109 % of control | [4] 108 % of control | dose: 400.0 mg/kg/injection, schedule: Q04DX003 (ip), vehicle: saline 109 % of control

C=C1CCC2C1C1C(C(C)C)CCC21C (centres undefined)
inactive: [1] 105 % of control | [2] 104 % of control

O=S1(=O)CCN(C2CCCCCC2)CC1
inactive: dose: 50.0 mg/kg/injection, schedule: Q01DX009 (ip), vehicle: Klucel (hydroxypropylcellulose) (HPC) 106 % of control | dose: 100.0 mg/kg/injection, schedule: Q01DX009 (ip), vehicle: Klucel (hydroxypropylcellulose) (HPC) 111 % of control | [7] 109 % of control

COc1ccc(CC2Cc3cc(OC)c(OC)cc3C=N2)cc1OC (centres undefined)
inactive: [8] 96 % of control | dose: 100.0 mg/kg/injection, schedule: Q01DX009 (ip), vehicle: saline 107 % of control | [5] 103 % of control | [6] 111 % of control

CNC(=O)C(C)C1C(=O)/C(=C(O)/C=C/C(C)=C\C(C)C2OC3(C)OC(C=CC34CO4)C2C)C(=O)N1C1CCC(O)C(C)O1 (centres undefined)
inactive: [8] 100 % of control | [7] 109 % of control

CS(=O)/C=C(\c1ccccc1)c1cccs1 (centres undefined)
inactive: [1] 96 % of control | [2] 100 % of control

CC(=O)OCc1cc2ccccc2nc1C
inactive: [9] 100 % of control | [3] 95 % of control | [10] 104 % of control | [4] 95 % of control | [11] 100 % of control

C(=Nc1ccccc1)c1ccc(-c2ccccc2)cc1
inactive: [2] 115 % of control | [9] 104 % of control | [3] 100 % of control | [10] 104 % of control | [4] 115 % of control | [11] 109 % of control

CN(C(=S)SSC(=S)N(C)c1ccccc1)c1ccccc1
inactive: dose: 12.5 mg/kg/injection, schedule: Q01DX009 (ip), vehicle: saline with Tween-80 98 % of control | dose: 25.0 mg/kg/injection, schedule: Q01DX009 (ip), vehicle: saline with Tween-80 99 % of control | [1] 100 % of control | [2] 92 % of control | dose: 200.0 mg/kg/injection, schedule: Q01DX001 (ip), vehicle: Klucel (hydroxypropylcellulose) (HPC) 91 % of control | dose: 400.0 mg/kg/injection, schedule: Q01DX001 (ip), vehicle: Klucel (hydroxypropylcellulose) (HPC) 95 % of control

Cc1ccc(CCCCCCCCCCCC(=O)O)cc1
inactive: [2] 96 % of control | [9] 95 % of control | [3] 92 % of control | [10] 100 % of control | [4] 107 % of control | [11] 110 % of control

O=NN(CCCl)C(=O)c1cc(Cl)cc(Cl)c1
inactive: dose: 25.0 mg/kg/injection, schedule: Q04DX003 (ip), vehicle: saline with Tween-80 104 % of control | dose: 50.0 mg/kg/injection, schedule: Q04DX003 (ip), vehicle: saline with Tween-80 104 % of control | [9] 100 % of control and 118 % of control | [10] 100 % of control and 104 % of control | [11] 100 % of control

Cc1cc([N+](=O)[O-])c2ccccc2c1N(CC(=O)O)S(=O)(=O)c1ccccc1
inactive: [2] 100 % of control | [9] 100 % of control | [3] 112 % of control | [10] 100 % of control | [4] 120 % of control | [11] 121 % of control
